Data published in patent publication US10993940B2, “Methods of enhancing immune response” (NOVARTIS AG, priority 2016, dated 2021).
“Also recorded” adds a separate entry of the source.

Legend:
mTORC1 and mTORC2 = mTORC1 and mTORC2 (Homo sapiens, UniProt P42345); details: low concentration; cited from earlier work
PI3K/mTOR = details: relatively higher concentrations; cited from earlier work
[1] = pH 3
mTORC1 = mTORC1 (Homo sapiens, UniProt P42345); details: very low concentration; cited from earlier work
[2] = tested on: immune system and interferon-induced gene expression in whole blood; test: RNAseq gene expression profiling and pathway enrichment analysis in whole blood, baseline vs after 6 weeks of treatment; type: in vivo, Homo sapiens; details: for Up-regulated genes: Tukey outlier of log 2(FC post- vs pre-treatment); for Mean FC Genes In Pathway: whole blood, post- vs pre-treatment (6 weeks)
Experimental: Peripheral venous blood samples were collected into PAXgene Blood RNA tubes. Total RNA was purified from PAXgene collected blood and the quality and yield of the isolated RNA assessed using an Agilent 2100 Bioanalyzer (Agilent Technologies, Santa Clara, Calif., USA). RNA-Seq libraries were prepared from the RNA using the Illumina TruSeq Stranded Total RNA with the Ribo-Zero Globin Kit. This kit performed the removal of ribosomal RNA and globin mRNA in a single step. The obtained libraries were sequenced using the Illumina HiSeq2500 platform in paired-end mode to a read length of 2×76 base-pairs (bp). Images from the instrument were processed using the manufacturer's software to generate FASTQ sequence files. Read quality was assessed by running FastQC (version 0.10) on the FASTQ files. […] An average of 100 million 76 bp paired-end reads per sample were mapped to the Homo sapiens genome (version GRCh38) and RefSeq UCSC was used for human gene and transcript annotation. An in-house gene quantification pipeline was used to determine the number of counts mapping to each gene (Schuierer, S. & Roma, G. The exon quantification pipeline (EQP): a comprehensive approach to the quantification of gene, exon and junction expression from RNA-seq data. Nucleic acids research (2016)). On average, 88% of the total reads were mapped to the genome or the transcripts, and 30% of the aligned reads mapped to expressed sequences. […] Any gene with an average expression of less than one count per million in any treatment/time condition was considered undetectable and removed from further analysis. Count data for remaining genes was then normalized in R Statistical Computing Software (v3.1.3) using the voom normalization procedure located in the limma package (Law, C W, Chen, Y, Shi, W, and Smyth, G K (2014). Voom: precision weights unlock linear model analysis tools for RNA-seq read counts. Genome Biology 15, […]). […] Thus, we included the value of this principle component as an adjustment for technical variation in subsequent analysis. For each gene, the following linear mixed model was fit to the voom-normalized expression data, adjusting for relevant covariates (age, gender, and BMI) as well as PC1 using SAS v9.3 software. • proc mixed […]; • class SubjID Day Trt Gender; • model log 2[…] Age Gender Bmi/solution DDFM=KenwardRoger; • repeated Day/type=un subject=SubjID; • by gene; where log 2exprs refers to the voom-normalized expression measurement; Day refers to the timepoint the sample was taken (pre- or post-dose); Trt refers to the treatment group of the subject; PC1 refers to the value of PC1 for that sample; Age refers to the age of the subject; Gender refers to the sex of the subject; Bmi refers to the body mass index of the subject; and SubjID refers to the ID of the subject. Differential expression fold changes and p-values were obtained using the SAS estimate statement. […] These gene expression signatures consisted of the post-vs pre-treatment fold change and p-values for each treatment. […] Canonical pathways (c2.cp.v5.0.entrez.gmt) were downloaded from the canonical signatures database (http://software.broadinstitute.org/gsea/msigdb/). Signatures were defined as described in the “RNASeq Differential Expression Analysis” section. For each pathway and treatment response signature, a weighted KS test was performed as previously described (Subramanian et al. Gene set enrichment analysis: A knowledge-based approach for interpreting genome-wide expression profiles. Proc. Nat. Acad.

[3] = oncology indications; cited from earlier work
[4] = tested on: respiratory tract infections; test: Respiratory tract infections during the 6 weeks of study drug treatment; type: in vivo, human; details: BEZ235 10 mg daily
Experimental: (Top) The percentage of subjects in each cohort who reported having one or more respiratory tract infections during the 6 weeks they were treated with study drug is shown. (Bottom) The percentage of subjects who experienced respiratory tract infections of moderate severity during the 6 weeks they were treated with study drug is shown. No subjects in the study experienced respiratory tract infections that were assessed as severe. The numbers on top of each bar indicate the percent change relative to placebo.
The rate of infections during the 6 weeks subjects were treated with study drug was also examined. The main infections that occurred during the 6 weeks of study drug treatment were respiratory tract infections.

[5] = human, in vivo, 10 mg
[6] = human, in vivo
Experimental: In some embodiments, dosing regimens contemplated herein comprise administering daily an amount of RAD001 ranging from about 0.015 mg to about 0.1 mg.

tooth or gum infections = test: Tooth or gum infections during one year after study drug administration
Experimental: A total of 264 elderly volunteers ≥65 years of age, without unstable medical conditions, were enrolled in a randomized double blind placebo-controlled trial. […] Subjects were treated for 6 weeks with study drug and, after a 2 week drug-free interval, were given a 2014 seasonal influenza vaccine (Fluvax®, CSL Biotherapies). […] The subjects were then followed for another 9 months off study drug.
As an additional assessment of immune function, the overall infection rate in each treatment group was assessed by having subjects record any infections they experienced during the year following the initiation of study drug treatment in a diary that was reviewed by study investigators at each study visit.

infections = test: Overall infection rate recorded by diary during the year following initiation of study drug; type: in vivo, human; details: elderly >=65 years
urinary tract infections = test: Urinary tract infections during one year after study drug administration; type: in vivo, human
[7] = REACTOME_INTERFERON_ALPHA_BETA_SIGNALING
[8] = REACTOME_INTERFERON_GAMMA_SIGNALING

Cn1c(=O)n(-c2ccc(C(C)(C)C#N)cc2)c2c3cc(-c4cnc5ccccc5c4)ccc3ncc21 [BEZ235, 2-methyl-2-[4-(3-methyl-2-oxo-8-quinolin-3-yl-2,3-dihydro-imidazo[4,5-c]quinolin-1-yl)-phenyl]-propionitrile]
concentration at which mTORC1 and mTORC2 inhibition predominates (mTORC1 and mTORC2): less than 200 nmol/L
concentration of dual PI3K/mTOR inhibition (PI3K/mTOR): approximately 500 nmol/L
solubility [1]: low
concentration at which mTORC1 inhibition predominates (mTORC1): less than or equal to 10 nmol/L
Up-regulated genes ([2]; REACTOME_CYTOKINE_SIGNALING_IN_IMMUNE_SYSTEM, listed as Bez): IFITM3; FCGR1A; FCGR1B; HLA-DQA2; and CDK1
Mean FC Genes In Pathway ([2]; REACTOME_CYTOKINE_SIGNALING_IN_IMMUNE_SYSTEM): 0.02
Up-regulated genes ([2]; REACTOME_IMMUNE_SYSTEM, listed as Bez): IFITM3; LILRB4; TRIM9; FCGR1A;; also recorded: FCGR1B; CD274; HLA-DQA2; RAP1GAP;; also recorded: TLR5; C1QA; C1QB; C3; C4BPA;; also recorded: PDCD1LG2; KLHL13; CD80; CDK1
Mean FC Genes In Pathway ([2]; REACTOME_IMMUNE_SYSTEM): 0.01
Up-regulated genes [2, 7]: IFITM3
Mean FC Genes In Pathway [2, 7]: 0.03
Up-regulated genes [2, 8]: FCGR1A; FCGR1B; HLA-DQA2
Mean FC Genes In Pathway [2, 8]: 0.04
Up-regulated genes ([2]; REACTOME_INTERFERON_SIGNALING): IFITM3; FCGR1A; FCGR1B, HLA-DQA2
Mean FC Genes In Pathway ([2]; REACTOME_INTERFERON_SIGNALING): 0.03
maximum tolerated dose [3]: 1200 mg daily
incidence and severity of respiratory tract infections during the 6 weeks subjects were treated with study drug [4]: reduction
inter-patient variability, AUClast,ss % CV [5]: 39%
tolerability [6]: well tolerated

CO[C@H]1C[C@@H]2CC[C@@H](C)[C@@](O)(O2)C(=O)C(=O)N2CCCC[C@H]2C(=O)O[C@H]([C@H](C)C[C@@H]2CC[C@@H](OCCO)[C@H](OC)C2)CC(=O)[C@H](C)/C=C(\C)[C@@H](O)[C@@H](OC)C(=O)[C@H](C)C[C@H](C)/C=C/C=C/C=C/1C [RAD001, (1R,9S,12S,15R,16E,18R,19R,21R,23 S,24E,26E,28E,30S,32S,35R)-1,18-dihydroxy-12-{(1R)-2-[(1 S,3R,4R)-4-(2-hydroxyethoxy)-3-methoxycyclohexyl]-1-methylethyl}-19,30-dimethoxy-15,17,21,23,29,35-hexamethyl-11,36-dioxa-4-aza-tricyclo[30.3.1.04,9]hexatriaconta-16,24,26,28-tetraene-2,3,10,14,20-pentaone]
Number of tooth or gum infections per person for one year after study drug administration (tooth or gum infections; RAD001 0.1 mg daily): .02
Number of tooth or gum infections per person for one year after study drug administration (tooth or gum infections; RAD001 0.5 mg daily): .02
Infection rate/person for one year after study drug administration (infections; RAD001 0.1 mg daily for 6 weeks): 2.0
Infection rate/person for one year after study drug administration (infections; RAD001 0.5 mg daily for 6 weeks): 2.1
Percent of subjects with urinary tract infections during one year after study drug administration (urinary tract infections; RAD001 0.1 mg daily, N = 51): 10%
Percent of subjects with urinary tract infections during one year after study drug administration (urinary tract infections; RAD001 0.5 mg daily, N = 46): 11%
